Test system: SARS-CoV-2 Spike protein pseudotyped lentiviral particles
Assay: microbe, parasite or virus in culture
Assay type: cell-based
Conditions: Severe acute respiratory syndrome coronavirus 2, HEK293, read-out: half-maximal effective concentration (EC50), neutralization of SARS-CoV2 infection

Which EC50 does the source give for `O=C1Nc2ccccc2/C1=C\c1ccc(-c2cc(C(F)(F)F)cc(C(F)(F)F)c2)o1` [CD04872SC, 3-({5-[3,5-di(trifluoromethyl)phenyl]-2-furyl}methylidene)indolin-2-one] here?
Its EC50 is 248 µM.

From patent US12569467B2, “Small molecules that treat or prevent viral infections” (priority 2022, dated 2026)
